38 compounds from ChEMBL document CHEMBL1123558, “Antitumor activity of bis(diphenylphosphino)alkanes, their gold(I) coordination complexes, and related compounds” (J Med Chem, 1987) can be followed below.

Where “and” joins values, the source holds several entries; their conditions need not be identical. Identical values can stand only once.

A word on the IC50: it is the midpoint of a concentration-inhibition curve. Read a high IC50 as lower potency. As a reminder, the ILS is how much longer treated animals lived than controls. Lower therefore signals a small benefit in survival. In general, TGI refers to the reduction of tumour growth relative to the control group. Read a low TGI as little slowing of growth.

Assay [1] concerns B16. In words: In vitro cytotoxicity against murine B16 melanoma cells. It counts as functional, cell-based, Mus musculus.
For assay [2], the system named is P388. In words: Maximum increase in life span was determined against P388 leukemia at 4-5 doses of compound. Type of assay: functional, Mus musculus.
Assay [3] has as its system Mus musculus. In words: Maximally tolerated dose was measured after ip administration of compound, 24 hr after tumor implantation. It counts as functional.
The species entered for assay [4] is Mus musculus.
The next assay has as its system M5076. In words: Percent increase in life span after transplant tumor in M5076 reticulum cells. Type of assay: functional, Mus musculus.
In assay [5] the test system is B16. In words: Percent increase in life span after transplant tumor in B16 melanoma cells. Type of assay: functional, Mus musculus.
Assay [6] can be described thus: Percent increase in life span after transplant tumor in Madison lung carcinoma cells. It counts as functional, Mus musculus, M109.
A further assay concerns ADJ/PC6. In words: Tumor growth inhibition activity after subcutaneous transplanted tumor in ADJ-PC6 plasmacytoma cells. Type of assay: functional, Mus musculus.
For assay [7], the system named is P388. Briefly: Percent increase in life span after transplant tumor in p388 leukemia cells. It counts as functional, Mus musculus.
The test system of a further assay is L1210. In words: Percent increase in life span after transplant tumor in L1210 leukemia. It counts as functional, Mus musculus.
Assay [8] can be described thus: Tumor growth inhibition activity after subcutaneous transplanted tumor in mammary carcinoma 16/C cells. It counts as functional, Mus musculus.
The subject of assay [9] is Lewis lung carcinoma cell line. Briefly: Percent increase in life span after transplant tumor in Lewis lung carcinoma cells. It counts as functional, Mus musculus.

On to `CC(CP(c1ccccc1)c1ccccc1)P(c1ccccc1)c1ccccc1` (stereo not given), for which half-maximal inhibition in the assay on B16 [1] (Mus musculus, B16) (IC50) required 50 µM. Moreover, the ILSmax with P388 [2] was found to be 86. Further, the MTD with Mus musculus [3] worked out at 78 µM/kg.

In the assay with B16 [1] (Mus musculus, B16), `c1ccc([As](CC[As](c2ccccc2)c2ccccc2)c2ccccc2)cc1` gave an IC50 greater than 100 µM. Besides, the MTD in the assay with Mus musculus [3] is 82 µM/kg.

As to `c1ccc(SCCSc2ccccc2)cc1`, the concentration for half-maximal inhibition (IC50) with B16 [1] (Mus musculus, B16) is greater than 100 µM. The compound further showed an MTD in the assay on Mus musculus [3] of 1000 µM/kg.

In the assay with P388 [2], `CSc1ccc(P(CCP(c2ccc(SC)cc2)c2ccc(SC)cc2)c2ccc(SC)cc2)cc1` returned an ILSmax of 58. In the assay on Mus musculus [3], this compound had an MTD of 55 µM/kg.

As to “4,4'-Bis-diphenylphosphanyl-biphenyl; compound with GENERIC INORGANIC NEUTRAL COMPONENT”, the MTD in the assay filed under Mus musculus [4] is 35 µM/kg and 24 µM/kg and 30 µM/kg.

As to `C(=C\P(c1ccccc1)c1ccccc1)/P(c1ccccc1)c1ccccc1`, in the assay on B16 [1] (Mus musculus, B16), 40 µM corresponded to half-maximal inhibition (IC50). In the assay with Mus musculus [3], this compound showed an MTD of 320 µM/kg.

For the compound `c1ccc(P(CCP(c2ccccc2)c2ccccc2)CCP(c2ccccc2)c2ccccc2)cc1`, in the assay on B16 [1] (Mus musculus, B16), the IC50 was greater than 100 µM. This compound also displayed an ILSmax with P388 [2] of 80. The MTD in the assay on Mus musculus [3] was 60 µM/kg.

For `c1ccc(P(CCP(CCP(c2ccccc2)c2ccccc2)CCP(c2ccccc2)c2ccccc2)c2ccccc2)cc1`, 58 µM corresponded to half-maximal inhibition in the assay on B16 [1] (Mus musculus, B16) (IC50). Moreover, the ILSmax in the assay with P388 [2] came out at 35. The MTD with Mus musculus [3] was 95 µM/kg.

In turn, `O=P(CCP(=O)(c1ccccc1)c1ccccc1)(c1ccccc1)c1ccccc1` showed an IC50 with B16 [1] (Mus musculus, B16) greater than 100 µM. The compound further registered an MTD with Mus musculus [3] of 300 µM/kg.

Regarding `c1ccc(P(CCCP(c2ccccc2)c2ccccc2)c2ccccc2)cc1`, inhibition in the assay on B16 [1] (Mus musculus, B16) was half-maximal at 72 µM (IC50). For the same compound, the ILSmax in the assay with P388 [2] is 75. The compound further registered an MTD with Mus musculus [3] of 78 µM/kg.

For the compound `Fc1ccccc1P(CCP(c1ccccc1F)c1ccccc1F)c1ccccc1F`, the IC50 in the assay with B16 [1] (Mus musculus, B16) was greater than 100 µM. Further, the ILSmax in the assay with P388 [2] turned out to be 45. Further, the MTD in the assay with Mus musculus [3] is 68 µM/kg.

In turn, `c1ccc(P(CCCCCP(c2ccccc2)c2ccccc2)c2ccccc2)cc1` came in with an IC50 in the assay on B16 [1] (Mus musculus, B16) greater than 100 µM. For the same compound, the ILSmax with P388 [2] is 50. Also, in the assay with Mus musculus [3], the MTD worked out at 18 µM/kg.

In the case of `CCP(CCP(CC)c1ccccc1)c1ccccc1` (stereo not given), in the assay on B16 [1] (Mus musculus, B16), the IC50 is greater than 100 µM. This compound yielded an MTD with Mus musculus [3] greater than 300 µM/kg.

On to `COc1ccccc1P(CCP(c1ccccc1OC)c1ccccc1OC)c1ccccc1OC`, for which the MTD in the assay with Mus musculus [3] stood at 120 µM/kg.

The compound `Fc1ccc(P(CCP(c2ccc(F)cc2)c2ccc(F)cc2)c2ccc(F)cc2)cc1` gave a half-maximal inhibitory concentration (IC50) with B16 [1] (Mus musculus, B16) greater than 100 µM. In the assay on P388 [2], this compound returned an ILSmax of 60. Also, the MTD in the assay with Mus musculus [3] was 17 µM/kg.

Consider `c1ccc(P(c2ccccc2)c2ccc(P(c3ccccc3)c3ccccc3)cc2)cc1`, for which the IC50 in the assay on B16 [1] (Mus musculus, B16) was greater than 100 µM. This compound also showed an MTD with Mus musculus [3] greater than 600 µM/kg.

Take `c1ccc(P(CCCCCCP(c2ccccc2)c2ccccc2)c2ccccc2)cc1`: in the assay on B16 [1] (Mus musculus, B16), the IC50 is greater than 100 µM. Further, the MTD in the assay with Mus musculus [3] is 280 µM/kg.

With `CN(C)c1ccc(P(CCP(c2ccc(N(C)C)cc2)c2ccc(N(C)C)cc2)c2ccc(N(C)C)cc2)cc1`, the MTD in the assay with Mus musculus [3] was greater than 220 µM/kg.

The compound `C(=C/P(c1ccccc1)c1ccccc1)/P(c1ccccc1)c1ccccc1` yielded an IC50 with B16 [1] (Mus musculus, B16) of 25 µM. Also, in the assay on P388 [2], the ILSmax is 60. In addition, the MTD with Mus musculus [3] was 61 µM/kg.

As for `c1ccc(P(CCCCP(c2ccccc2)c2ccccc2)c2ccccc2)cc1`, the IC50 with B16 [1] (Mus musculus, B16) is greater than 100 µM. Further, the ILSmax with P388 [2] stood at 45. This compound also had an MTD in the assay with Mus musculus [3] of 66 µM/kg.

Consider `Cc1cccc(P(CCP(c2cccc(C)c2)c2cccc(C)c2)c2cccc(C)c2)c1`, for which the IC50 in the assay with B16 [1] (Mus musculus, B16) is greater than 100 µM. For the same compound, the MTD with Mus musculus [3] is 70 µM/kg.

`c1ccc(P(CCP(c2ccccn2)c2ccccn2)c2ccccn2)nc1` yielded a 50% inhibitory concentration (IC50) in the assay on B16 [1] (Mus musculus, B16) greater than 100 µM. This compound displayed an MTD in the assay with Mus musculus [3] of 60 µM/kg.

For the compound `c1cc(P(CCP(c2ccncc2)c2ccncc2)c2ccncc2)ccn1`, in the assay on P388 [2], the ILSmax is 35. The same compound came in with an MTD with Mus musculus [3] of 80 µM/kg.

Regarding `FC(F)(F)c1ccc(P(CCP(c2ccc(C(F)(F)F)cc2)c2ccc(C(F)(F)F)cc2)c2ccc(C(F)(F)F)cc2)cc1`, the ILSmax with P388 [2] worked out at 38. Further, the MTD in the assay with Mus musculus [3] is 48 µM/kg.

The compound `CCP(CC)CCP(CC)CC` had an IC50 with B16 [1] (Mus musculus, B16) greater than 100 µM. For the same compound, in the assay with Mus musculus [3], the MTD was 310 µM/kg.

The compound `c1csc(P(CCP(c2cccs2)c2cccs2)c2cccs2)c1` yielded an IC50 in the assay on B16 [1] (Mus musculus, B16) greater than 100 µM. In the assay on P388 [2], the ILSmax is 60. Also, the MTD in the assay with Mus musculus [3] was 38 µM/kg.

`C1CCC(P(CCP(C2CCCCC2)C2CCCCC2)C2CCCCC2)CC1`: in the assay on B16 [1] (Mus musculus, B16), the IC50 is greater than 100 µM. The compound also registered an ILSmax with P388 [2] of 68. The compound also came in with an MTD with Mus musculus [3] of 76 µM/kg.

In the assay on B16 [1] (Mus musculus, B16), `C(#CP(c1ccccc1)c1ccccc1)P(c1ccccc1)c1ccccc1` displayed an IC50 of 23 µM. In the assay with Mus musculus [3], this compound displayed an MTD greater than 300 µM/kg.

Consider `c1ccc(P(CCP(c2ccccc2)c2ccccc2)c2ccccc2)cc1`, for which the ILS is listed as 74% in the assay on M5076; 38% with B16 [5]; 50% in [6]; 107% in the assay on P388 [7]; 56% in the assay with L1210; 69% in assay [9]. Also, the TGI came out at 94% in the assay on ADJ/PC6 and 88% in [8]. The IC50 in the assay on B16 [1] (Mus musculus, B16) was 50 µM; in the assay with B16 [1] (b16) it was 60 µM. The ILSmax in the assay on P388 [2] was 80 and 107. Further, the MTD with Mus musculus [3] was 60 µM/kg and 50 µM/kg.

Compound `COc1ccc(P(CCP(c2ccc(OC)cc2)c2ccc(OC)cc2)c2ccc(OC)cc2)cc1` registered an IC50 in the assay on B16 [1] (Mus musculus, B16) of 66 µM. Further, in the assay on Mus musculus [3], the MTD was 62 µM/kg.

`c1ccc(CP(CCP(Cc2ccccc2)Cc2ccccc2)Cc2ccccc2)cc1` displayed a concentration for half-maximal inhibition (IC50) in the assay on B16 [1] (Mus musculus, B16) greater than 100 µM. The compound also displayed an MTD in the assay on Mus musculus [3] of 44 µM/kg.

In the assay on Mus musculus [3], `O=[N+]([O-])[O][Ag].O=[N+]([O-])[O][Ag].c1ccc(P(CCP(c2ccccc2)c2ccccc2)c2ccccc2)cc1` displayed an MTD of 8 µM/kg.

In the assay with P388 [2], `CSc1ccccc1P(CCP(c1ccccc1SC)c1ccccc1SC)c1ccccc1SC` yielded an ILSmax of 51. The same compound registered an MTD in the assay with Mus musculus [3] of 110 µM/kg.

Regarding `c1ccc(P(CC[As](c2ccccc2)c2ccccc2)c2ccccc2)cc1`, the IC50 in the assay with B16 [1] (Mus musculus, B16) was 55 µM. For the same compound, in the assay on Mus musculus [3], the MTD amounted to 89 µM/kg.

In the assay with B16 [1] (Mus musculus, B16), `Cc1ccc(P(CCP(c2ccc(C)cc2)c2ccc(C)cc2)c2ccc(C)cc2)cc1` displayed an IC50 greater than 100 µM. The compound also gave an MTD with Mus musculus [3] of 26 µM/kg.

Compound `CC(C(C)P(c1ccccc1)c1ccccc1)P(c1ccccc1)c1ccccc1` (stereo not given) registered an IC50 in the assay with B16 [1] (Mus musculus, B16) of 50 µM. This compound registered an ILSmax in the assay on P388 [2] of 73. The compound further returned an MTD in the assay on Mus musculus [3] of 113 µM/kg.

`c1ccc(P(c2ccccc2)P(c2ccccc2)c2ccccc2)cc1` came in with an IC50 with B16 [1] (Mus musculus, B16) greater than 100 µM. Moreover, the MTD in the assay with Mus musculus [3] was determined as 320 µM/kg.

As for `c1coc(P(CCP(c2ccco2)c2ccco2)c2ccco2)c1`, the IC50 in the assay on B16 [1] (Mus musculus, B16) was greater than 100 µM. In addition, the ILSmax in the assay with P388 [2] is 60. This compound gave an MTD in the assay with Mus musculus [3] of 180 µM/kg.
